{
  "source": "patent US9770451B2",
  "about": "“Composition including ATM inhibitor for reducing cellular senescence and use of the composition” (Samsung Electronics Co., Ltd., priority 2014, dated 2017)",
  "assay_type_in_all_cases": "cell-based, human",
  "key": {"[1]": {"system": "senescent myoblasts (passage 11)", "test": "Morphological change by microscopy", "settings": "CP-466722 0.1 μM, 4 weeks", "experimental": "A human myoblast cell line (Human Skeletal Muscle Myoblasts, Lonza CC-2580 LOT:0000387550) was inoculated into a plate (Greiner Bio One, 658950), which was coated with Collagen Type I, by using an SkBM™-2 Basal Medium (Lonza CC-3246) containing SkGM™-2 SingleQuots™ Kit (Lonza CC-3244), and then, cultured in a 5% CO2 incubator at a temperature of 37° C. When the cells were grown to about 85% confluency in the plate, the cells were subjected to subculture. The early subculture was carried out at a split ratio of 1:4, and the late subculture was carried out at a split ratio of 1:2. When the cell doubling time was 14 days, the cells were considered to be senescent […] (passages 10 to 12).\nThe senescent cells were inoculated into each well of a Collagen Type I-coated 6-well plate (Greiner Bio One, 657950) at a concentration of 2,000 cells/well, and then, the senescent myoblasts ([…]) in a CO2 incubator at a temperature of 37° C. for 4 weeks. The medium was replaced by a fresh medium containing KU-60019 (0.5 μM), once every 4 days. In addition, as a negative control group, the cells were cultured under the same conditions as described above, except that a medium used herein contained DMSO (0.05 (v/v) %).\nIn FIG. 16, the myoblasts were cultured in the presence of the ATM-kinase inhibitor KU-60019 (0.5 μM), and then, the cell shapes were photographed using a microscope. […]"}, "[2]": {"system": "progeria senescent fibroblasts (passage 17)", "test": "Mitochondrial membrane potential (JC-1)", "settings": "CP-466722 0.1 μM", "experimental": "The mitochondrial activity potential (i.e., mitochondrial membrane potential) was measured according to the protocol of the manufacturer of the MitoProbe™ JC-1 assay kit for flow cytometry (Life technologies: T3168). […] Consequently, mitochondrial depolarization is indicated by a decrease in the red/green fluorescence intensity ratio. The cultured cells were analyzed by flow cytometry by using an FACSCaliber (Beckton Dickinson) using excitation at a wavelength of 488 nm, and band-pass emission light filters at a wavelength of 530/30 nm and 585/42 nm. The results were analyzed using Cell Quest 3.2 software (Beckton Dickinson). FIG. 12 is a graph showing results of measuring mitochondrial activity potential (B) of the cultured cells. […]\nThe mitochondrial activity potential (i.e., mitochondrial membrane potential) was measured according to the protocol of the manufacturer using the MitoProbe™ JC-1 assay kit for flow cytometry (Life technologies: T3168). […] Consequently, mitochondrial depolarization is indicated by a decrease in the red/green fluorescence intensity ratio. The cultured cells were analyzed by flow cytometry by using an FACSCaliber (Beckton Dickinson) using excitation at a wavelength of 488 nm, and band-pass emission light filters at a wavelength of 530/30 nm and 585/42 nm. The results were analyzed using Cell Quest 3.2 software (Beckton Dickinson)."}, "[3]": {"system": "progeria senescent fibroblasts (passage 17)", "test": "SA-β-galactosidase staining", "settings": "CP-466722 0.1 μM, 4 weeks"}, "[4]": {"system": "progeria senescent fibroblasts (passage 17)", "test": "ROS measurement (MitoSOX Red)", "settings": "CP-466722 0.1 μM", "experimental": "ROS was measured according to the protocol of the manufacturer using a 0.2 μM MitoSOX™ Red reagent (Invitrogen, M36008). In detail, 2 μL of the reagent that was stored in a 1,000-fold concentration was added to a 2 ml medium sufficiently enough to cover the cultured cells that were attached to a coverslip. While being protected from light, the cells were further incubated at a temperature of 37° C. for 30 minutes. The cultured cells were irradiated with a wavelength of 520 nm by using a FACSCaliber (Beckton Dickinson), and then, measured with radiation emitted from a wavelength of 580 nm. The results were analyzed using Cell Quest 3.2 software (Beckton Dickinson). FIG. 12 is a graph showing results of measuring ROS (A) and mitochondrial membrane potential (B) of the progeria senescent fibroblasts (passage 17) that were cultured in the presence of an ATM-kinase inhibitor KU-60019 (0.5 μM).\nROS was measured according to the protocol of the manufacturer using a 0.2 μM MitoSOX™ Red reagent (Invitrogen, M36008). […] The cultured cells were irradiated with a wavelength of 520 nm by using a FACSCaliber (Beckton Dickinson), and then, measured with radiation emitted from a wavelength of 580 nm. The results were analyzed using Cell Quest 3.2 software (Beckton Dickinson)."}},
  "data": [
    {"smiles": "COc1cc2ncnc(-n3nc(-c4ccccn4)nc3N)c2cc1OC", "note": "[CP-466722, 2-(6,7-dimethoxyquinazolin-4-yl)-5-(pyridin-2-yl)-2H-1,2,4-triazol-3-amine]", "values": [
      {"measurement": "cell number and morphology vs DMSO control", "setting": "[1]", "value": "exist in a great number in the presence of CP-466722 and show a spindle form"},
      {"measurement": "mitochondrial activity potential vs control", "setting": "[2]", "value": "significantly increased"},
      {"measurement": "number of cells that express β-galactosidase vs DMSO control", "setting": "[3]", "value": "significantly decreased"},
      {"measurement": "amount of ROS vs control", "setting": "[4]", "value": "significantly decreased"}
    ]}
  ]
}
